In one experiment the target is T1, spFoID (Streptococcus pneumoniae serotype 4, UniProt Q97RI9).
T1 construct: made in house; host or cells: E. coli BL21 (DE3)
Kind of experiment: FoID cyclohydrolase (CYH) enzyme assay. The class given is biochemical, S. pneumoniae. The protocol:
(6R,S)-5,10-Methylene-5,6,7,8-tetrahydrofolic acid ((6R,S)-5,10-CH2-THF), calcium salt and (6R,S)-5,10-Methenyl-5,6,7,8-tetrahydrofolic acid ((6R,S)-5,10-CH=THF) chloride were purchased from Schircks Laboratories (Bauma, Switzerland) and were used as substrates for FoID dehydrogenase and cyclohydrolase enzyme assays, respectively. Only the R-isomer, which accounts for 50% of (6R,S)-5,10-CH2-THF and (6R,S)-5,10-CH=THF, respectively, is used by the enzyme. (6R,S)-5,10-CH2-THF was dissolved in N2-spargeled basic buffer (50 mM Tris-HCl (pH 8.0), 100 mM β-mercaptoethanol) as described by Sah and Varshney, 2015a (6R,S)-5,10-CH=THF was first dissolved in DMSO as a 100 mM stock solution.
Because FoID is a bifunctional enzyme, dehydrogenase and cyclohydrolase activities were determined for FoID enzyme kinetics, respectively. The dehydrogenase activity of FoID was assayed for its substrate 5,10-CH2-THF and cofactor NADP+ (in the case of MTHFD2, NAD+ was used as cofactor) based on monitoring the formation of 5,10-CH=THF while the cyclohydrolase activity of FoID was determined for its substrate 5,10-CH=THF by monitoring the hydrolysis of 5,10-CH2-THF. The enzyme kinetics for the dehydrogenase activity of all FoIDs except hsMTHFD1_DC were determined at 30° C. in 50 mM Tris-HCl (pH 7.5), 30 mM β-mercaptoethanol. The hsMTHFD1_DC dehydrogenase activity was measured in 25 mM MOPS (pH 7.3), 30 mM β-mercaptoethanol at 30° C. […] To monitor the formation of 5,10-CH=THF, the absorbance of the reaction mixture was monitored at 350 nm in micro UV cuvettes (BRAND, Essex, Connecticut, USA). The concentration of 5,10-CH=THF produced in the reaction was determined using an extinction co-efficient of 0.0249 μM-1 cm-1. […] The consumption of 5,10-CH=THF was measured by recording the absorbance of the reactions at 355 nm using the TECAN Infinite 200 PRO equipped with a monochromator. […] The inhibition constants (Ki) of carolacton on FoID were determined by measuring the apparent Km values when adding certain amounts of carolacton to the enzyme reactions. […]

The next experiment relates to E. coli ToIC. The experiment can be described thus: Minimum inhibition concentration (MIC). The settings on record: Escherichia coli, read-out: minimum inhibition concentration (MIC). The class given is cell-based. The source says: First, the minimum inhibition concentration (MIC) of carolacton on E. coli ToIC strain has been determined. We started to develop the resistant mutants on CASO agar plates supplemented with 4× the MIC concentration of carolacton as selection pressure. Different numbers of E. coli ToIC cells from 1×10^7 to 10^9 were spread on caso agar plate with carolacton, respectively. After 7 days, E. coli ToIC colonies, which were resistant to carolacton, started to form on the agar plates. The mutants picked were inoculated in liquid MHB medium supplemented with carolacton.

≈ marks a conversion by molar mass, not a printed value.

T1 sequence (Q97RI9 whole entry): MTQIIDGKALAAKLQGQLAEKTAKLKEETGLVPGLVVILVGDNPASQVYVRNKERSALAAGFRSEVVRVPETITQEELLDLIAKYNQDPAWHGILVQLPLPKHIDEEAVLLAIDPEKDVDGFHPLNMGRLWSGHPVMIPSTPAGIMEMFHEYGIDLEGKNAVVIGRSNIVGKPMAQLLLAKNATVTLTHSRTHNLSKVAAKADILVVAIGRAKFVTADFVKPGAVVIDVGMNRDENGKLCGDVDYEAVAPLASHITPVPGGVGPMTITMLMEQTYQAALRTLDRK

For `CO[C@H](CC(=O)O)[C@@H](C)C(=O)[C@H](C)/C=C(\C)[C@H]1OC(=O)[C@H](O)[C@H](O)/C=C/[C@H](C)CCC[C@@H]1C` [Carolacton, carolacton], the IC50 (in general, the concentration at which inhibition is half-maximal) on spFoID (5 nM enzyme, read-out: IC50, carolacton inhibition on CYH activity) amounted to 38.1 nM. For the same molecule, the concentration for an effect of 80% (IC80) (usually the concentration needed for an effect of 80%) on spFoID (5 nM enzyme, read-out: IC80, carolacton inhibition on CYH activity) is 101 nM. Besides, the inhibition constant Ki (commonly a measure of affinity in units of concentration, obtained from inhibition or displacement) on spFoID (vs 5,10-CH=THF, read-out: Ki (5,10-CH═THF), carolacton inhibition on CYH activity) was 38.1 nM. The MIC in the experiment with E. coli ToIC turned out to be 0.125 µg/mL (≈ 0.267 µM).

For the origin of these results see patent US11357752B2, “Carolacton and derivatives thereof for use in the treatment of cell proliferation disorders” (Helmholtz-Zentrum für Infektionsforschung GmbH, priority 2017, dated 2022).
